Where a chain is given by its changes, count along the chain named.

The source of these data is patent publication US20230136297A1, “Methods Of Treating Fabry Disease In Patients Having A Mutation In The GLA Gene” (Amicus Therapeutics, Inc., priority 2020, published 2023).

Holding throughout (assay): α-Gal A activity in lysates of transfected HEK-293 cells ± migalastat (HEK assay)
Common to all, as to type: cell-based

The target in one test is T1, α-Gal A mutant form Y88C (Homo sapiens, UniProt P06280, Y88C).
T1 construct: expressed in transfected cells; host or cells: HEK-293
T1 sequence (P06280 32-429 Y88C): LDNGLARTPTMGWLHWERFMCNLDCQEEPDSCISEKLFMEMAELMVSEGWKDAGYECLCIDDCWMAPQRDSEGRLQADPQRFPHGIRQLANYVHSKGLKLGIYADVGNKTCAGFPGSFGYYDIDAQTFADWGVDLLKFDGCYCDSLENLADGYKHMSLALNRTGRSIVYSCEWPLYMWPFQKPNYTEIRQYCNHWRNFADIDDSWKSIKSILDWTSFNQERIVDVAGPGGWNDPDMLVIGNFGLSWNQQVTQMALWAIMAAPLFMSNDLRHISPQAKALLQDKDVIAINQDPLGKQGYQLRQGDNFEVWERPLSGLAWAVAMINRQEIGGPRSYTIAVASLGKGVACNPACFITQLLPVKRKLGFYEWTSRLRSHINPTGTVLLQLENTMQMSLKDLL
Summed up:
(§1)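 Activity is reported as nmol of free 4-MU released per mg protein per hour (nmol/mg/hr).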

For test [1], the target named is T2, α-Gal A mutant form I303T (Homo sapiens, UniProt P06280, I303T).
T2 construct: expressed in transfected cells; host or cells: HEK-293
T2 sequence (P06280 32-429 I303T): T1 sequence (P06280 32-429 Y88C) with C57Y, I272T
In outline: as §1

Test [2] concerns the target T3, α-Gal A mutant form L310V (Homo sapiens, UniProt P06280, L310V).
T3 construct: expressed in transfected cells; host or cells: HEK-293
T3 sequence (P06280 32-429 L310V): T1 sequence (P06280 32-429 Y88C) with C57Y, L279V
Summed up: as §1

In test [3] the target is T4, α-Gal A mutant form D182G (Homo sapiens, UniProt P06280, D182G).
T4 construct: expressed in transfected cells; host or cells: HEK-293
T4 sequence (P06280 32-429 D182G): T1 sequence (P06280 32-429 Y88C) with C57Y, D151G
In outline:
as §1

For test [4], the target named is T5, α-Gal A mutant form G360R (Homo sapiens, UniProt P06280, G360R).
T5 construct: expressed in transfected cells; host or cells: HEK-293
T5 sequence (P06280 32-429 G360R): T1 sequence (P06280 32-429 Y88C) with C57Y, G329R
Summed up: as §1

Where [5] appears, read: 10 μM migalastat minus baseline.
The mark [6] stands for this setting: HEK-293 lysates, 10 μM migalastat 5 days, mean ± SEM.

For `OC[C@H]1NC[C@H](O)[C@@H](O)[C@H]1O` [migalastat, (2R,3S,4R,5S)-2-(hydroxymethyl) piperdine-3,4,5-triol], the “Absolute increase (% WT)” value at α-Gal A mutant form Y88C (setting [5]) was 9.9 % WT; in test [1] (10 μM migalastat minus baseline, baseline BLD), 7.3 % WT; in test [2] (setting [5]), 22.8 % WT; in test [3] (setting [5]), 45.6 % WT; in test [4] (setting [5]), 3 % WT. The Relative increase on α-Gal A mutant form Y88C (10 μM migalastat ÷ baseline) came to 3.38; in test [2] (10 μM migalastat ÷ baseline) it was 1.37; in test [3] (10 μM migalastat ÷ baseline), 1.56; in test [4] (10 μM migalastat ÷ baseline), 3.65. The “10 μM migalastat α-Gal A activity” value at α-Gal A mutant form Y88C (setting [6]) amounted to 5459 ± 307 nmol/mg/h; in test [1] (HEK-293 lysates, 10 μM migalastat 5 days, mean ± SEM, baseline BLD (<142 nmol/mg/hr)), 2809 ± 520 nmol/mg/h; in test [2] (setting [6]) it was 31936 ± 2527 nmol/mg/h; in test [3] (setting [6]), 43772 ± 4156 nmol/mg/h; in test [4] (setting [6]) it was 1418 ± 93 nmol/mg/h. The “10 μM migalastat α-Gal A activity (% WT)” value at α-Gal A mutant form Y88C (setting [6]) is reported as 14 ± 1.1 % WT; in test [1] (HEK-293 lysates, 10 μM migalastat 5 days, mean ± SEM, baseline BLD), 7.3 ± 1.4 % WT; in test [2] (setting [6]) it was 78.4 ± 4.8 % WT; in test [3] (setting [6]), 129.6 ± 9.7 % WT; in test [4] (setting [6]) it was 4.0 ± 0.3 % WT.
